Results on one compound are retold here after publication PMC6176658, “Experimentally Validated Pharmacoinformatics Approach to Predict hERG Inhibition Potential of New Chemical Entities” (Frontiers in Pharmacology, 2018).

The target in the experiment is T1, hERG (Kv11.1) potassium channel (Homo sapiens, UniProt Q12809).
T1 construct: gene KCNH2
Kind of experiment: cell-based.

One may read the IC50 as the concentration needed to halve the response being measured.

SMILES strings stand for the structures.

T1 sequence (Q12809 whole entry): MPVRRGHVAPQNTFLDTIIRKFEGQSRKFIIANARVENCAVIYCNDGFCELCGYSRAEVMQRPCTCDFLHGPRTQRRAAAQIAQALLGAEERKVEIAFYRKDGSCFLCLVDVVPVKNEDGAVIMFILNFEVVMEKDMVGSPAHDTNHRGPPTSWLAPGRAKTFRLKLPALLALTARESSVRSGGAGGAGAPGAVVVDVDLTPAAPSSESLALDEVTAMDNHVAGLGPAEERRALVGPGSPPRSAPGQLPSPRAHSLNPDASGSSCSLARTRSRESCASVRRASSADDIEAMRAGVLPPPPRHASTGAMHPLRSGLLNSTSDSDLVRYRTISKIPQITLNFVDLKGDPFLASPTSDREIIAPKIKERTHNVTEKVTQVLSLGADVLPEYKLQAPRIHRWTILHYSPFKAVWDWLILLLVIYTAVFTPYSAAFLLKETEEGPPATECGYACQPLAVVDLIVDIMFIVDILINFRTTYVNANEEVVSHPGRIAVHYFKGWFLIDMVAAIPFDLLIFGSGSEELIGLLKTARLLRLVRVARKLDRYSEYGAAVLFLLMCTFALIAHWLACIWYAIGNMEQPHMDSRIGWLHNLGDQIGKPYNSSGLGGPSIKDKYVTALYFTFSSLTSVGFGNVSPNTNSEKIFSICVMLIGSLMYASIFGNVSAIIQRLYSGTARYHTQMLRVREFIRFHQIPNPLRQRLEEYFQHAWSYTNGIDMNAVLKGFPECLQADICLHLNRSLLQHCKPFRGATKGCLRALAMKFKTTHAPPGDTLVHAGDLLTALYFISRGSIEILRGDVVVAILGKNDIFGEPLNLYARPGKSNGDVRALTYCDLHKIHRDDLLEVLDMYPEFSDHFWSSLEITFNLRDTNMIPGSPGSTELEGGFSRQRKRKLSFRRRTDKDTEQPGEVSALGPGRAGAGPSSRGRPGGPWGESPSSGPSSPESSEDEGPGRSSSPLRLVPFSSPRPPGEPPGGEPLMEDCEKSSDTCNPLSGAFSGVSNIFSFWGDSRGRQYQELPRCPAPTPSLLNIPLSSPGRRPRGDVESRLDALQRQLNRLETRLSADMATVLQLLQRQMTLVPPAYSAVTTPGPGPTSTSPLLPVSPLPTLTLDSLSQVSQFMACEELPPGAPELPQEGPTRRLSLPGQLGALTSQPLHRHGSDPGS

Compound `CCOC(=O)c1cc(C)n(-c2ccccc2)c1C` [OSM-S-31] registered a concentration for half-maximal inhibition (IC50) of 3.89 µM.
